For one test, the target named is T1, human KV 1.5 (IKur) (Homo sapiens, UniProt P22460).
T1 construct: expressed in transfected cells
T1 sequence (P22460 whole entry): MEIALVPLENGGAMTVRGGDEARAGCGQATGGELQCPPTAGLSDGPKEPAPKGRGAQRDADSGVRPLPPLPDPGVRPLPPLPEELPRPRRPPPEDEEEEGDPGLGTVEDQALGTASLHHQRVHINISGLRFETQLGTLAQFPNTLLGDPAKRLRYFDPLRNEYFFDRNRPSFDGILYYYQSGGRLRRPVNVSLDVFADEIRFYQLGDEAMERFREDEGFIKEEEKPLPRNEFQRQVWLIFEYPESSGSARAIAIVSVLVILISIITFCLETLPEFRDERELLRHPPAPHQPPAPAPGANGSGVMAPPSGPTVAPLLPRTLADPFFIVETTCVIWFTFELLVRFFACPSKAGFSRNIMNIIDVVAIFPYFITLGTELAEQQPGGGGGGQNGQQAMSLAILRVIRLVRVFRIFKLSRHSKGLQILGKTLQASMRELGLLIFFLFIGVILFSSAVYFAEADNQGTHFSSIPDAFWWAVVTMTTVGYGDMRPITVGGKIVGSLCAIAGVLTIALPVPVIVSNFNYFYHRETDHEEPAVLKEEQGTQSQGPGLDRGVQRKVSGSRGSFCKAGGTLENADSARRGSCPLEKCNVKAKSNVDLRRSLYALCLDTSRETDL
The experiment in a line: block of IKur current in patch clamped L-929 cells expressing human Kv1.5. Format: cell-based. As to conditions: 0.3 μM; patch clamped mammalian L-929 cells stably expressing human Kv1.5. The source says: Assays to determine the degree of activity of a compound as an IKur inhibitor are well known in the art and are described in references such as J. Gen. Physiol., 101(4):513-543 (April 1993), and Br. J. Pharmacol., 115(2):267-274 (May 1995).
Synders, D. J. et al., “A rapidly activating and slowly inactivating potassium channel cloned from human heart: functional analysis after stable mammalian cell culture expression”, J. Gen. Physiol., 101:513-543 (1993). • 2. Zhou, Z. et al., “Block of HERG potassium channels by the antihistamine astemizole and its metabolites desmethylastemizole and norastemizole”, J. Cardiovasc. Electrophysiol., 10(6):836-843 (1999).
A general note: In patch-clamp work, channel activity is measured electrically.
“4-(4-(benzylamino)-5- phenylpyrrolo [1,2-f][1,2,4] triazin-2-yl) picolinic acid [Example 95]”: the “KV1_5% Inh L929 @0.3 μM” value stood at 98.08%.

Turning to `CC(O)c1cncc(-c2nc(NCc3ccccc3)c3c(-c4ccccc4)ccn3n2)c1` (centres unmarked) [Example 21, 1-(5-(4-(Benzylamino)-5-phenylpyrrolo[1,2-f][1,2,4]triazin-2-yl)pyridin-3-yl)ethanol], the “KV1_5% Inh L929 @0.3 μM” value is listed as 96.63%.

Staying with this test, now noted: L929, 0.3 μM; patch clamped mammalian L-929 cells stably expressing human Kv1.5; read-out: KV1_5% Inh L929 @0.3 μM.
Regarding `c1ccc(CNc2nc(C3CCOCC3)nn3ccc(-c4ccccc4)c23)cc1` [Example 128, N-benzyl-5-phenyl-2-(tetrahydro-2H-pyran-4-yl)pyrrolo[1,2-f][1,2,4] triazin-4-amine], the inhibition at 0.3 µM is 95.4%.

On to `CC(=O)Nc1ccc(-c2nc(NCc3ccccn3)c3c(-c4ccccc4)ccn3n2)cn1` [Example 54, N-(5-(5-phenyl-4-(pyridin-2-ylmethylamino)pyrrolo[1,2-f][1,2,4]triazin-2-yl)pyridin-2-yl)acetamide], for which the inhibition at 0.3 µM turned out to be 90.2%.

For the compound `CCOC(=O)CC(=O)Nc1cncc(-c2nc(NCc3cnccn3)c3c(-c4ccccc4)ccn3n2)c1` [Example 177, ethyl 3-oxo-3-((5-(5-phenyl-4-((pyrazin-2-ylmethyl)amino)pyrrolo [2,1-f][1,2,4]triazin-2-yl)pyridin-3-yl)amino) propanoate], the inhibition at 0.3 µM turned out to be 96.7%.

With `NC(=O)c1ccccc1NC(=O)c1nc(NCc2ccccc2)c2c(-c3ccccc3)ccn2n1` [Example 114, 4-(benzylamino)-N-(2-carbamoylphenyl)-5-phenylpyrrolo [1,2-f][1,2,4] triazine-2-carboxamide], the inhibition at 0.3 µM was 35.2%.

Regarding `CC(O)c1cncc(-c2nc(NCc3ccccc3)c3c(-c4ccccc4)ccn3n2)c1` (centres unmarked) [Example 21, 1-(5-(4-(Benzylamino)-5-phenylpyrrolo[1,2-f][1,2,4]triazin-2-yl)pyridin-3-yl)ethanol], the inhibition at 0.3 µM amounted to 93.2%.

With `O=C(O)CC(=O)Nc1cncc(-c2nc(NCc3ccccc3)c3c(-c4ccccc4)ccn3n2)c1` [Example 78, 3-(5-(4-(benzylamino)-5-phenylpyrrolo [1,2-f][1,2,4]triazin-2-yl)pyridin-3-ylamino)-3-oxopropanoic acid], the inhibition at 0.3 µM stood at 22.9%.

With `NS(=O)(=O)c1cncc(-c2nc(NCc3ccccc3)c3c(-c4ccccc4)ccn3n2)c1` [Example 1, 5-(4-(Benzylamino)-5-phenylpyrrolo[1,2-f][1,2,4]triazin-2-yl)pyridine-3-sulfonamide], the inhibition at 0.3 µM came to 96.5%.

As for `NC(=O)CC(=O)Nc1cncc(-c2nc(NCc3ccccn3)c3c(-c4ccccc4)ccn3n2)c1` [Example 52, N1-(5-(5-phenyl-4-(pyridin-2-ylmethylamino)pyrrolo[1,2-f][1,2,4]triazin-2-yl)pyridin-3-yl)malonamide], the inhibition at 0.3 µM came to 96.1%.

Take `CCCS(=O)(=O)Nc1cncc(-c2nc(NCc3ccccn3)c3c(-c4ccccc4)ccn3n2)c1` [Example 57, N-(5-(5-phenyl-4-(pyridin-2-ylmethylamino)pyrrolo[1,2-f][1,2,4]triazin-2-yl)pyridin-3-yl) propane-1-sulfonamide]: the inhibition at 0.3 µM was 95.5%.

As to `O=S(=O)(CCCCl)Nc1cncc(-c2nc(NCc3ccccn3)c3c(-c4ccccc4)ccn3n2)c1` [Example 63, 3-chloro-N-(5-(5-phenyl-4-(pyridin-2-ylmethylamino)pyrrolo[1,2-f][1,2,4]triazin-2-yl)pyridin-3-yl)propane-1-sulfonamide], the inhibition at 0.3 µM stood at 97.8%.

Consider `CS(=O)(=O)Nc1cncc(-c2nc(NCc3ccccn3)c3c(-c4ccccc4)ccn3n2)c1` [Example 3, N-(5-(5-Phenyl-4-(pyridin-2-ylmethylamino)pyrrolo[1,2-f][1,2,4]triazin-2-yl)pyridin-3-yl)methanesulfonamide], for which the inhibition at 0.3 µM turned out to be 94.1%.

`NS(=O)(=O)c1cncc(-c2nc(NC(c3ccccc3)C(F)(F)F)c3c(-c4ccccc4)ccn3n2)c1` (centres unmarked) [Example 83, 5-(5-phenyl-4-(2,2,2-trifluoro-1-phenylethylamino)pyrrolo [1,2-f][1,2,4]triazin-2-yl)pyridine-3-sulfonamide]: the inhibition at 0.3 µM came to 89.8%.

Values taken from US9050345B2, “Pyrrolotriazines as potassium ion channel inhibitors” (BRISTOL-MYERS SQUIBB COMPANY, priority 2013, dated 2015).
